Experimental data as given in PubChem BioAssay AID1963422 (Molecular Pharmacology Branch, DTP, NCI, 2024).
Several values for one entry are separate records, joined by “and”; a condition that tells them apart may be missing. Equal entries are not always repeated.

System: 463943-066-T-J2-PDC complex spheroid growth
Assay: Anticancer human tumor 463943-066-T-J2-PDC patient-derived colon adenocarcinoma cell line growth inhibition [Asc]
Conditions: for viability, T/C: stronger effect = lower value
Summary of the method: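 Tumor cells were grown as multicellular spheroids with stromal HUVEC and mesenchymal stem cells and treated singly or in combination. Concentrations fell in half-log steps from the clinical Cmax, or from 10 microM where none was known.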

[1] = curve of first compound, second compound 0.00316 µM
[2] = curve of first compound, second compound 0.01 µM
[3] = curve of first compound, second compound 0.0316 µM
[4] = curve of first compound, second compound 0.1 µM
[5] = curve of first compound, second compound 0.316 µM
[6] = curve of first compound, second compound 1 µM
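Further: compound exposure lasted 7 days.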
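Wherever viability, T/C is given: 100% = DMSO vehicle control wells.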

With `O=C(c1ccc(F)c(F)c1Nc1ccc(I)cc1F)N1CC(O)([C@@H]2CCCCN2)C1` + CNC(C)C(=O)NC1CN(S(=O)(=O)c2cccc(S(=O)(=O)N3CCC4CCC(C(=O)NC(c5ccccc5)c5ccccc5)N4C(=O)C(NC(=O)C(C)NC)C3)c2)CCC2CCC(C(=O)NC(c3ccccc3)c3ccccc3)N2C1=O the IC50 [1] was 125 nM, the IC50 [2] was 343 nM and the IC50 [3] was 304 nM. For the same compound, the IC50 [4] was 173 nM, the IC50 [5] was 229 nM and the IC50 [6] was 238 nM. The viability, T/C (second compound 0.00316 µM, first compound 0.00316 µM) was 88.3%, the viability, T/C (second compound 0.00316 µM, first compound 0.01 µM) was 76.9% and the viability, T/C (second compound 0.00316 µM, first compound 0.0316 µM) was 59.4%. For the same compound, the viability, T/C (second compound 0.00316 µM, first compound 0.1 µM) was 58.4%, the viability, T/C (second compound 0.00316 µM, first compound 0.316 µM) was 40.4% and the viability, T/C (second compound 0.00316 µM, first compound 1 µM) was 20.8%. The viability, T/C (second compound 0.01 µM, first compound 0.00316 µM) was 94.6%, the viability, T/C (second compound 0.01 µM, first compound 0.01 µM) was 88.3% and the viability, T/C (second compound 0.01 µM, first compound 0.0316 µM) was 71.8%. The viability, T/C (second compound 0.01 µM, first compound 0.1 µM) was 65.9%, the viability, T/C (second compound 0.01 µM, first compound 0.316 µM) was 51.3% and the viability, T/C (second compound 0.01 µM, first compound 1 µM) was 36.9%. It also gave a viability, T/C (second compound 0.0316 µM, first compound 0.00316 µM) of 102%, a viability, T/C (second compound 0.0316 µM, first compound 0.01 µM) of 81.6% and a viability, T/C (second compound 0.0316 µM, first compound 0.0316 µM) of 69%. It also gave a viability, T/C (second compound 0.0316 µM, first compound 0.1 µM) of 67.2%, a viability, T/C (second compound 0.0316 µM, first compound 0.316 µM) of 55% and a viability, T/C (second compound 0.0316 µM, first compound 1 µM) of 32.6%. It also gave a viability, T/C (second compound 0.1 µM, first compound 0.00316 µM) of 85.1%, a viability, T/C (second compound 0.1 µM, first compound 0.01 µM) of 82.9% and a viability, T/C (second compound 0.1 µM, first compound 0.0316 µM) of 64.4%. For the same compound, the viability, T/C (second compound 0.1 µM, first compound 0.1 µM) was 56%, the viability, T/C (second compound 0.1 µM, first compound 0.316 µM) was 46.8% and the viability, T/C (second compound 0.1 µM, first compound 1 µM) was 24.7%. For the same compound, the viability, T/C (second compound 0.316 µM, first compound 0.00316 µM) was 91.1%, the viability, T/C (second compound 0.316 µM, first compound 0.01 µM) was 79.2% and the viability, T/C (second compound 0.316 µM, first compound 0.0316 µM) was 66.5%. It also gave a viability, T/C (second compound 0.316 µM, first compound 0.1 µM) of 60%, a viability, T/C (second compound 0.316 µM, first compound 0.316 µM) of 49.9% and a viability, T/C (second compound 0.316 µM, first compound 1 µM) of 31.8%. It also gave a viability, T/C (second compound 1 µM, first compound 0.00316 µM) of 82%, a viability, T/C (second compound 1 µM, first compound 0.01 µM) of 68.1% and a viability, T/C (second compound 1 µM, first compound 0.0316 µM) of 66.3%. It also gave a viability, T/C (second compound 1 µM, first compound 0.1 µM) of 61.4%, a viability, T/C (second compound 1 µM, first compound 0.316 µM) of 47.4% and a viability, T/C (second compound 1 µM, first compound 1 µM) of 33.4%.

With `CCN1C(C(=O)NC23CCC(C(=O)O)(CC2)CC3)C(c2cccc(Cl)c2F)C2(C(=O)Nc3cc(Cl)ccc32)C12CCCCC2` (stereo unspecified) the viability, T/C (compound 0.00949 µM) was 98.6% [middle of 8 runs], the viability, T/C (compound 0.03 µM) was 96.1% [middle of 8 runs] and the viability, T/C (compound 0.0949 µM) was 88.7% [middle of 8 runs]. The viability, T/C (compound 0.3 µM) was 82.9% [middle of 8 runs], the viability, T/C (compound 0.949 µM) was 76.8% [middle of 8 runs] and the viability, T/C (compound 3 µM) was 77.5% [middle of 8 runs]. For the same compound, the IC50 (compound alone, run of 11/07/2022) was > 3000 nM and the IC50 (curve of compound) was > 3000 nM.

In the case of `Cc1nc(N2CCC3(CC2)COC(C)C3N)c(CO)nc1Sc1ccnc(N)c1Cl` (stereo unspecified) + CNC(C)C(=O)NC1CN(S(=O)(=O)c2cccc(S(=O)(=O)N3CCC4CCC(C(=O)NC(c5ccccc5)c5ccccc5)N4C(=O)C(NC(=O)C(C)NC)C3)c2)CCC2CCC(C(=O)NC(c3ccccc3)c3ccccc3)N2C1=O, the IC50 [1] is reported as > 3000 nM, the IC50 [2] is reported as > 3000 nM and the IC50 [3] is reported as > 3000 nM. The IC50 [4] was > 3000 nM, the IC50 [5] was > 3000 nM and the IC50 [6] was > 3000 nM. It also gave a viability, T/C (second compound 0.00316 µM, first compound 0.00949 µM) of 106%, a viability, T/C (second compound 0.00316 µM, first compound 0.03 µM) of 84.2% and a viability, T/C (second compound 0.00316 µM, first compound 0.0949 µM) of 85.5%. It also gave a viability, T/C (second compound 0.00316 µM, first compound 0.3 µM) of 86.6%, a viability, T/C (second compound 0.00316 µM, first compound 0.949 µM) of 81% and a viability, T/C (second compound 0.00316 µM, first compound 3 µM) of 70.3%. It also gave a viability, T/C (second compound 0.01 µM, first compound 0.00949 µM) of 96.2%, a viability, T/C (second compound 0.01 µM, first compound 0.03 µM) of 95.6% and a viability, T/C (second compound 0.01 µM, first compound 0.0949 µM) of 83.1%. It also gave a viability, T/C (second compound 0.01 µM, first compound 0.3 µM) of 85.5%, a viability, T/C (second compound 0.01 µM, first compound 0.949 µM) of 77.1% and a viability, T/C (second compound 0.01 µM, first compound 3 µM) of 71.8%. It also gave a viability, T/C (second compound 0.0316 µM, first compound 0.00949 µM) of 95.4%, a viability, T/C (second compound 0.0316 µM, first compound 0.03 µM) of 94.7% and a viability, T/C (second compound 0.0316 µM, first compound 0.0949 µM) of 81.3%. For the same compound, the viability, T/C (second compound 0.0316 µM, first compound 0.3 µM) was 78.8%, the viability, T/C (second compound 0.0316 µM, first compound 0.949 µM) was 77.6% and the viability, T/C (second compound 0.0316 µM, first compound 3 µM) was 69.1%. For the same compound, the viability, T/C (second compound 0.1 µM, first compound 0.00949 µM) was 96.8%, the viability, T/C (second compound 0.1 µM, first compound 0.03 µM) was 87% and the viability, T/C (second compound 0.1 µM, first compound 0.0949 µM) was 89.1%. The viability, T/C (second compound 0.1 µM, first compound 0.3 µM) was 88.1%, the viability, T/C (second compound 0.1 µM, first compound 0.949 µM) was 73.2% and the viability, T/C (second compound 0.1 µM, first compound 3 µM) was 66.3%. It also gave a viability, T/C (second compound 0.316 µM, first compound 0.00949 µM) of 92.3%, a viability, T/C (second compound 0.316 µM, first compound 0.03 µM) of 92.5% and a viability, T/C (second compound 0.316 µM, first compound 0.0949 µM) of 88.8%. For the same compound, the viability, T/C (second compound 0.316 µM, first compound 0.3 µM) was 83%, the viability, T/C (second compound 0.316 µM, first compound 0.949 µM) was 73.6% and the viability, T/C (second compound 0.316 µM, first compound 3 µM) was 66.5%. For the same compound, the viability, T/C (second compound 1 µM, first compound 0.00949 µM) was 84.1%, the viability, T/C (second compound 1 µM, first compound 0.03 µM) was 82.2% and the viability, T/C (second compound 1 µM, first compound 0.0949 µM) was 82%. It also gave a viability, T/C (second compound 1 µM, first compound 0.3 µM) of 73.5%, a viability, T/C (second compound 1 µM, first compound 0.949 µM) of 69.3% and a viability, T/C (second compound 1 µM, first compound 3 µM) of 64%.

For `NC1CCC(NC2CC2c2ccccc2)CC1` (stereo unspecified), the viability, T/C (compound 0.000316 µM) was 89.8% and 86.8%, the viability, T/C (compound 0.001 µM) was 94.3% and 87.5% and the viability, T/C (compound 0.00316 µM) was 87.3% and 94.4%. For the same compound, the viability, T/C (compound 0.01 µM) was 92.6% and 95.7%, the viability, T/C (compound 0.0316 µM) was 94.2% and 88.1% and the viability, T/C (compound 0.1 µM) was 86.1% and 94.9%. For the same compound, the IC50 (curve of compound) was > 100 nM.

`O=C(c1ccc(F)c(F)c1Nc1ccc(I)cc1F)N1CC(O)([C@@H]2CCCCN2)C1` was tested, and the viability, T/C (compound 0.00316 µM) was 88.3% and 95.1% and 104%, the viability, T/C (compound 0.01 µM) was 79.2% and 78% (2×) and the viability, T/C (compound 0.0316 µM) was 71.1% and 60.7% and 77.5%. For the same compound, the viability, T/C (compound 0.1 µM) was 57.1% and 58.9% and 75.6%, the viability, T/C (compound 0.316 µM) was 39.7% and 42% and 51.9% and the viability, T/C (compound 1 µM) was 29% and 29.9% and 35.8%. The IC50 (curve of compound) was 159 nM and 140 nM and 397 nM.
